MIC data for 9 molecules are collected here from ChEMBL document CHEMBL1287771, “Novel hybrids of 15-membered 8a- and 9a-azahomoerythromycin A ketolides and quinolones as potent antibacterials” (2010).

≈ marks a conversion by molar mass, not a printed value.

Format in all cases: functional
For assay [1], the system named is Staphylococcus aureus. Kind of assay: Antibacterial activity against constitutive macrolide-lincosamide-streptogramin B-resistant Staphylococcus aureus B0330 by agar microdilution method.
For assay [2], the system named is Staphylococcus aureus. Kind of assay: Antibacterial activity against inducible macrolide-lincosamide-streptogramin B-resistant Staphylococcus aureus B0538 by agar microdilution method.
The test system of assay [3] is Streptococcus pneumoniae. Kind of assay: Antibacterial activity against erythromycin A-susceptible Streptococcus pneumoniae B0541 by agar microdilution method.
Assay [4] relates to Streptococcus pyogenes. Briefly: Antibacterial activity against efflux-resistant Streptococcus pyogenes B0545 by agar microdilution method.
In assay [5] the test system is Streptococcus pyogenes. Kind of assay: Antibacterial activity against erythromycin A-susceptible Streptococcus pyogenes B0542 by agar microdilution method.
Assay [6] concerns Streptococcus pneumoniae. Briefly: Antibacterial activity against efflux-resistant Streptococcus pneumoniae B0326 by agar microdilution method.
In a further assay the test system is Moraxella catarrhalis. Kind of assay: Antibacterial activity against Moraxella catarrhalis B0324 by agar microdilution method.
Assay [7] deals with Streptococcus pneumoniae. Briefly: Antibacterial activity against constitutive macrolide-lincosamide-streptogramin B-resistant Streptococcus pneumoniae B0627 by agar microdilution method.
The subject of assay [8] is Staphylococcus aureus. Briefly: Antibacterial activity against erythromycin A-susceptible Staphylococcus aureus B0329 by agar microdilution method.
For assay [9], the system named is Staphylococcus aureus. Briefly: Antibacterial activity against efflux-resistant Staphylococcus aureus B0331 by agar microdilution method.
In assay [10] the test system is Streptococcus pyogenes. Kind of assay: Antibacterial activity against constitutive macrolide-lincosamide-streptogramin B-resistant Streptococcus pyogenes B0544 by agar microdilution method.
A further assay relates to Haemophilus influenzae. Briefly: Antibacterial activity against Haemophilus influenzae B0529 by agar microdilution method.
In assay [11] the test system is Streptococcus pyogenes. Briefly: Antibacterial activity against inducible macrolide-lincosamide-streptogramin B-resistant Streptococcus pyogenes B0543 by agar microdilution method.

As for `CC[C@H]1OC(=O)[C@H](C)C(=O)[C@H](C)[C@@H](O[C@@H]2O[C@H](C)C[C@H](N(C)C)[C@H]2O)[C@](C)(OCC(O)CNCCNc2cc3c(=O)c(C(=O)O)cn(C4CC4)c3cc2Cl)C[C@@H](C)NC(=O)[C@H](C)[C@H](O)[C@@]1(C)O` (some centres not stated), the MIC was greater than 64 µg/mL in the assay on Staphylococcus aureus [1]; 2 µg/mL (≈ 2.07 µM) in the assay with Staphylococcus aureus [2]; no more than 0.125 µg/mL in the assay with Streptococcus pneumoniae [3]; 4 µg/mL (≈ 4.14 µM) with Streptococcus pyogenes [4]; no more than 0.125 µg/mL in the assay on Streptococcus pyogenes [5]; 1 µg/mL (≈ 1.03 µM) with Streptococcus pneumoniae [6]. In addition, the MIC stood at 4 µg/mL (≈ 4.14 µM) in the assay on Moraxella catarrhalis; 4 µg/mL (≈ 4.14 µM) against Streptococcus pneumoniae [7]; 1 µg/mL (≈ 1.03 µM) in the assay on Staphylococcus aureus [8]; 0.5 µg/mL (≈ 0.517 µM) with Staphylococcus aureus [9]; 32 µg/mL (≈ 33.1 µM) in the assay on Streptococcus pyogenes [10]; 8 µg/mL (≈ 8.28 µM) in the assay with Haemophilus influenzae. This molecule also gave an MIC with Streptococcus pyogenes [11] of 4 µg/mL (≈ 4.14 µM).
`CC[C@H]1OC(=O)[C@H](C)C(=O)[C@H](C)[C@@H](O[C@@H]2O[C@H](C)C[C@H](N(C)C)[C@H]2O)[C@](C)(OC)C[C@@H](C)C(=O)[C@H](C)[C@H]2N(CCCCn3cnc(-c4cccnc4)c3)C(=O)O[C@]12C` [TELITHROMYCIN]: the MIC against Staphylococcus aureus [1] was greater than 64 µg/mL; with Staphylococcus aureus [2] it was 0.5 µg/mL (≈ 0.616 µM); in the assay with Streptococcus pneumoniae [3], 0.06 µg/mL (≈ 0.0739 µM); in the assay on Streptococcus pyogenes [4] it was 0.25 µg/mL (≈ 0.308 µM); against Streptococcus pyogenes [5], no more than 0.06 µg/mL; against Streptococcus pneumoniae [6] it was 0.5 µg/mL (≈ 0.616 µM). Besides, the MIC with Moraxella catarrhalis was no more than 0.125 µg/mL; in the assay on Streptococcus pneumoniae [7], no more than 0.125 µg/mL; in the assay on Staphylococcus aureus [8], no more than 0.125 µg/mL; with Staphylococcus aureus [9] it was 0.25 µg/mL (≈ 0.308 µM); in the assay on Streptococcus pyogenes [10], 4 µg/mL (≈ 4.93 µM); against Haemophilus influenzae it was 2 µg/mL (≈ 2.46 µM). In addition, the MIC against Streptococcus pyogenes [11] is no more than 0.06 µg/mL.
Turning to `C=CCO[C@]1(C)C[C@@H](C)NC(=O)[C@H](C)[C@H](O)[C@@](C)(O)[C@@H](CC)OC(=O)[C@H](C)[C@@H](O[C@@H]2C[C@@](C)(OC)[C@@H](O)[C@H](C)O2)[C@H](C)[C@H]1O[C@@H]1O[C@H](C)C[C@H](N(C)C)[C@H]1O`, the MIC against Staphylococcus aureus [1] is greater than 64 µg/mL; with Staphylococcus aureus [2], greater than 64 µg/mL; in the assay with Streptococcus pneumoniae [3], no more than 0.125 µg/mL; in the assay with Streptococcus pyogenes [4] it was 16 µg/mL (≈ 20.3 µM); against Streptococcus pyogenes [5], no more than 0.125 µg/mL; against Streptococcus pneumoniae [6], 8 µg/mL (≈ 10.1 µM). Further, the MIC in the assay on Moraxella catarrhalis is no more than 0.125 µg/mL; against Streptococcus pneumoniae [7], greater than 64 µg/mL; in the assay with Staphylococcus aureus [8] it was 0.25 µg/mL (≈ 0.317 µM); in the assay with Staphylococcus aureus [9], 64 µg/mL (≈ 81.1 µM); with Streptococcus pyogenes [10], greater than 64 µg/mL; in the assay with Haemophilus influenzae, 1 µg/mL (≈ 1.27 µM). The MIC against Streptococcus pyogenes [11] worked out at 16 µg/mL (≈ 20.3 µM).
`CC[C@H]1OC(=O)[C@H](C)C(=O)[C@H](C)[C@@H](O[C@H]2C[C@H](O)[C@@H](N(C)C)[C@@H](C)O2)[C@](C)(OC/C=C/c2cnc3ccccc3c2)C[C@@H](C)/C(=N\OC(C)=O)[C@H](C)[C@@H](O)[C@]1(C)O`: the MIC against Staphylococcus aureus [1] was 64 µg/mL (≈ 80.2 µM); against Staphylococcus aureus [2], 0.5 µg/mL (≈ 0.627 µM); in the assay on Streptococcus pneumoniae [3], no more than 0.125 µg/mL; against Streptococcus pyogenes [4], 0.5 µg/mL (≈ 0.627 µM); with Streptococcus pyogenes [5] it was 0.125 µg/mL (≈ 0.157 µM); against Streptococcus pneumoniae [6] it was no more than 0.125 µg/mL. The MIC against Moraxella catarrhalis is 8 µg/mL (≈ 10 µM); with Streptococcus pneumoniae [7] it was 8 µg/mL (≈ 10 µM); with Staphylococcus aureus [8], 0.25 µg/mL (≈ 0.313 µM); against Staphylococcus aureus [9], 1 µg/mL (≈ 1.25 µM); against Streptococcus pyogenes [10] it was 32 µg/mL (≈ 40.1 µM); in the assay on Haemophilus influenzae it was 32 µg/mL (≈ 40.1 µM). The MIC against Streptococcus pyogenes [11] was no more than 0.125 µg/mL.
`CC[C@H]1OC(=O)[C@H](C)C(=O)[C@H](C)[C@@H](O[C@@H]2O[C@H](C)C[C@H](N(C)C)[C@H]2O)[C@](C)(OCC(O)CNC2CN(S(=O)(=O)c3ccc4ccncc4c3)CCN2)C[C@@H](C)NC(=O)[C@H](C)[C@H](O)[C@@]1(C)O` (some centres not stated): the MIC in the assay with Staphylococcus aureus [1] was greater than 64 µg/mL; in the assay on Staphylococcus aureus [2], 16 µg/mL (≈ 17.1 µM); with Streptococcus pneumoniae [3], no more than 0.125 µg/mL; against Streptococcus pyogenes [4], 16 µg/mL (≈ 17.1 µM); in the assay on Streptococcus pyogenes [5], no more than 0.125 µg/mL; against Streptococcus pneumoniae [6], 64 µg/mL (≈ 68.3 µM). For the same molecule, the MIC against Moraxella catarrhalis was 8 µg/mL (≈ 8.54 µM); against Streptococcus pneumoniae [7] it was 32 µg/mL (≈ 34.1 µM); in the assay with Staphylococcus aureus [8], 8 µg/mL (≈ 8.54 µM); with Staphylococcus aureus [9] it was 16 µg/mL (≈ 17.1 µM); in the assay on Streptococcus pyogenes [10], greater than 64 µg/mL; against Haemophilus influenzae, greater than 64 µg/mL. Also, the MIC in the assay on Streptococcus pyogenes [11] came out at 16 µg/mL (≈ 17.1 µM).
For `CC[C@H]1OC(=O)[C@H](C)C(=O)[C@H](C)[C@@H](O[C@@H]2O[C@H](C)C[C@H](N(C)C)[C@H]2O)[C@](C)(OC/C=C/c2cnc3ccccc3c2)C[C@@H](C)NC(=O)[C@H](C)[C@H](O)[C@@]1(C)O`, the MIC is greater than 64 µg/mL in the assay on Staphylococcus aureus [1]; 0.5 µg/mL (≈ 0.661 µM) in the assay on Staphylococcus aureus [2]; no more than 0.125 µg/mL against Streptococcus pneumoniae [3]; 1 µg/mL (≈ 1.32 µM) against Streptococcus pyogenes [4]; no more than 0.125 µg/mL in the assay with Streptococcus pyogenes [5]; 0.5 µg/mL (≈ 0.661 µM) with Streptococcus pneumoniae [6]. Also, the MIC against Moraxella catarrhalis was 0.25 µg/mL (≈ 0.331 µM); against Streptococcus pneumoniae [7], 16 µg/mL (≈ 21.2 µM); against Staphylococcus aureus [8], 1 µg/mL (≈ 1.32 µM); with Staphylococcus aureus [9], 0.5 µg/mL (≈ 0.661 µM); with Streptococcus pyogenes [10], 8 µg/mL (≈ 10.6 µM); in the assay on Haemophilus influenzae, 4 µg/mL (≈ 5.29 µM). This molecule came in with an MIC against Streptococcus pyogenes [11] of 1 µg/mL (≈ 1.32 µM).
Take `CC[C@H]1OC(=O)[C@H](C)C(=O)[C@H](C)[C@@H](O[C@@H]2O[C@H](C)C[C@H](N(C)C)[C@H]2O)[C@](C)(OC/C=C/c2ccnc3ccccc23)C[C@@H](C)NC(=O)[C@H](C)[C@H](O)[C@@]1(C)O`: the MIC against Staphylococcus aureus [1] was greater than 64 µg/mL; in the assay on Staphylococcus aureus [2], 1 µg/mL (≈ 1.32 µM); with Streptococcus pneumoniae [3] it was no more than 0.125 µg/mL; against Streptococcus pyogenes [4] it was 2 µg/mL (≈ 2.65 µM); against Streptococcus pyogenes [5] it was 0.25 µg/mL (≈ 0.331 µM); against Streptococcus pneumoniae [6], 1 µg/mL (≈ 1.32 µM). The MIC against Moraxella catarrhalis is 0.5 µg/mL (≈ 0.661 µM); with Streptococcus pneumoniae [7], greater than 64 µg/mL; against Staphylococcus aureus [8], 0.5 µg/mL (≈ 0.661 µM); in the assay on Staphylococcus aureus [9] it was 2 µg/mL (≈ 2.65 µM); in the assay on Streptococcus pyogenes [10], 16 µg/mL (≈ 21.2 µM); against Haemophilus influenzae it was 4 µg/mL (≈ 5.29 µM). This molecule also returned an MIC with Streptococcus pyogenes [11] of 2 µg/mL (≈ 2.65 µM).
For the molecule `CC[C@H]1OC(=O)[C@H](C)[C@@H](O[C@@H]2C[C@@](C)(OC)[C@@H](O)[C@H](C)O2)[C@H](C)[C@@H](O[C@@H]2O[C@H](C)C[C@H](N(C)C)[C@H]2O)[C@](C)(OC/C=C/NCCc2ccc([N+](=O)[O-])cc2)C[C@@H](C)C(=O)N[C@H](C)[C@H](O)[C@@]1(C)O`, the MIC was greater than 64 µg/mL against Staphylococcus aureus [1]; greater than 64 µg/mL in the assay with Staphylococcus aureus [2]; greater than 64 µg/mL in the assay on Streptococcus pneumoniae [3]; 16 µg/mL (≈ 16.8 µM) against Streptococcus pyogenes [4]; 0.125 µg/mL (≈ 0.131 µM) with Streptococcus pyogenes [5]; 16 µg/mL (≈ 16.8 µM) in the assay with Streptococcus pneumoniae [6]. Moreover, the MIC against Moraxella catarrhalis was 8 µg/mL (≈ 8.39 µM); in the assay on Streptococcus pneumoniae [7] it was greater than 64 µg/mL; against Staphylococcus aureus [8], 32 µg/mL (≈ 33.6 µM); with Staphylococcus aureus [9], 32 µg/mL (≈ 33.6 µM); with Streptococcus pyogenes [10], greater than 64 µg/mL; against Haemophilus influenzae, 64 µg/mL (≈ 67.1 µM). In the assay on Streptococcus pyogenes [11], this molecule returned an MIC of 4 µg/mL (≈ 4.2 µM).
On to `CC[C@H]1OC(=O)[C@H](C)C(=O)[C@H](C)[C@@H](O[C@@H]2O[C@H](C)C[C@H](N(C)C)[C@H]2O)[C@](C)(OCC(O)CNc2ccc3ncccc3c2)C[C@@H](C)NC(=O)[C@H](C)[C@H](O)[C@@]1(C)O` (some centres not stated), for which the MIC is 64 µg/mL (≈ 81.1 µM) in the assay with Staphylococcus aureus [1]; 2 µg/mL (≈ 2.53 µM) against Staphylococcus aureus [2]; no more than 0.125 µg/mL in the assay on Streptococcus pneumoniae [3]; 8 µg/mL (≈ 10.1 µM) against Streptococcus pyogenes [4]; no more than 0.125 µg/mL against Streptococcus pyogenes [5]; 2 µg/mL (≈ 2.53 µM) against Streptococcus pneumoniae [6]. Besides, the MIC was 0.5 µg/mL (≈ 0.634 µM) in the assay on Moraxella catarrhalis; 8 µg/mL (≈ 10.1 µM) with Streptococcus pneumoniae [7]; 2 µg/mL (≈ 2.53 µM) in the assay on Staphylococcus aureus [8]; 1 µg/mL (≈ 1.27 µM) against Staphylococcus aureus [9]; 16 µg/mL (≈ 20.3 µM) in the assay on Streptococcus pyogenes [10]; no more than 0.125 µg/mL against Haemophilus influenzae. For the same molecule, in the assay with Streptococcus pyogenes [11], the MIC turned out to be 4 µg/mL (≈ 5.07 µM).
